Patent publication US7829063B2, “Development of molecular imaging probes for carbonic anhydrase-IX using click chemistry” (Siemens Medical Solutions USA, Inc., priority 2007, dated 2010)
Where two headings read alike, the source gives them in different places.

Target: T1, CA-IX (Homo sapiens, UniProt Q16790)
T1 construct: His tag (C); purchased R&D Systems Inc. 2188-CA; host or cells: mouse myeloma cell line NS0
Assay: CA-IX combinatorial library screening, competitive fluorescence-based assay with dansylamide (DNSA)
Type: binding
Details: sample concentrations 100 nM and 1000 nM, DNSA 200 μM, screening at 1 μM; for inhibition at 1 µM: 1 h
Experimental: General. CA-IX human recombinant enzyme was expressed with a C-terminal His tag in a mouse myeloma cell line, NS0 (R&D Systems Inc., catalog number 2188-CA). The human red blood cells were obtained from Research Blood Components, LLC. All absorbance measurements were performed on a SPECTRA MAX M2 plate reader at 25° C. The LC/MS analyses were performed on an Agilent 1100 series LC/MSD (SL) using a 30×2.1 mm Zorbax C8 column with a Phenomenex C18 pre-column. Compound detection was accomplished by electrospray mass spectroscopy in positive selected ion mode (LC/MS-SIM). The elution solvents were acetonitrile and water, contained 0.05% TFA. Nuclear magnetic resonance (NMR) spectra were obtained on a Bruker AMX 300 MHz spectrometer or a Varian 400. 19F NMR spectra were recorded on a Bruker AMX 282.35 MHz or a Varian 400 spectrometer. The mass spectra were recorded on an Agilent 1100 series LC/MSD with electrospray mass spectroscopic detection. Flash column chromatography was performed on Merck silica gel (40-63 μm) using the solvent system indicated. The radiochemical and chemical purities were analyzed by RP-HPLC.
General Combinatorial Library Screening Protocol for CA-IX
The CA-IX screening assay was employed for testing libraries derived from the various “anchor” molecules, using ethoxzolamide as a positive control. The assay was performed at a substrate (dansylamide, DNSA) concentration of 200 μM, and sample concentrations of 100 nM and 1000 nM, respectively. A modified competitive fluorescence-based assay (A. Jain, S. G. Huang, G. M. Whitesides, J. Am. Chem. Soc. 1994, 116, 5057) was used to measure CA-IX activity. The enzymatic assay was carried out in a 96-well plate. To the wells, deionized water, 40 μL of phosphate buffer (250 mM, pH 7.4), 2.4 μL of CA-IX (17 μM), and 2 μL or 20 μL of inhibitor (concentration of 100 nM or 1000 nM) were added to achieve a final volume of 180 μL. Reactions were initiated by adding 20 μL DNSA (200 μM) to each well and the plate was incubated at 25° C. for 1 hour. The fluorescence intensities from each well of the plate were then read at 460 nm using a plate reader with an excitation wavelength of 290 nm.

[1] = Table 2, Libraries 4-7, read-out: In Vitro Binding Assay (Library (Screening))
[2] = Table 1, Libraries 1-3, read-out: In Vitro Binding Assay (Library Screening)

inhibition at 1 µM [1]	inhibition at 1 µM [2]	SMILES	also measured
< 40%	–	CC(C)[C@@H](C(=O)NCc1ccccn1)n1cc(-c2ccc(S(N)(=O)=O)cc2)nn1 [DHK178]	–
< 40%	–	CC(C)[C@@H](C(=O)NCC1COc2ccccc2O1)n1cc(-c2ccc(S(N)(=O)=O)cc2)nn1 (some centres unmarked) [DHK187]	–
–	< 40%	Cc1ccc(C)c(CNC(=O)[C@H](Cc2ccccc2)n2cc(CNC(=O)c3ccc(S(N)(=O)=O)cc3)nn2)c1 [DHK45]	–
–	< 40%	COC(=O)[C@H](CSCc1ccccc1)NC(=O)Cn1cc(-c2ccc(S(N)(=O)=O)cc2)nn1 [DHK4]	–
–	< 40%	NS(=O)(=O)c1ccc(-c2cn(Cc3nc4ccccc4[nH]3)nn2)cc1 [DHK27]	–
–	< 40%	NS(=O)(=O)c1ccc(C(=O)NCc2cn(CCn3c(=O)[nH]c4ccccc4c3=O)nn2)cc1 [DHK93]	–
–	< 40%	NS(=O)(=O)c1ccc(-c2cn(CCCCCCO)nn2)cc1 [DHK73]	–
–	< 40%	NS(=O)(=O)c1nc2ccc(OCc3cn(CC(=O)N4CCN(c5cc(Cl)cc(Cl)c5)CC4)nn3)cc2s1 [DHK141]	–
–	< 40%	NS(=O)(=O)c1ccc(C(=O)NCc2cn(C3CCN(S(=O)(=O)/C=C/c4ccccc4)CC3)nn2)cc1 [DHK96]	–
–	< 40%	CC(C)C(C(=O)Nc1ccc(-c2ccccc2)cc1)n1cc(COc2ccc3nc(S(N)(=O)=O)sc3c2)nn1 (centres unmarked) [DHK134]	–
–	< 40%	NS(=O)(=O)c1ccc(-c2cn(-c3cccc(C(=O)NN4CCOCC4)c3)nn2)cc1 [DHK104]	–
–	< 40%	NCCCn1cc(-c2ccc(S(N)(=O)=O)cc2)nn1 [DHK108]	–
–	< 40%	NS(=O)(=O)c1ccc(-c2cn(CC(=O)n3ncc4ccccc43)nn2)cc1 [DHK65]	–
–	< 40%	COc1ccc2nc3cc(Cl)ccc3c(NCCCn3cc(-c4ccc(S(N)(=O)=O)cc4)nn3)c2c1 [DHK24]	–
–	< 40%	CC(CN(C)C)Cn1cc(-c2ccc(S(N)(=O)=O)cc2)nn1 (centres unmarked) [DHK14]	–
–	< 40%	NS(=O)(=O)c1ccc(-c2cn(C3CCN(S(=O)(=O)/C=C/c4ccccc4)CC3)nn2)cc1 [DHK109]	–

inhibition at 1 µM [1]	inhibition at 1 µM [2]	SMILES	also measured
–	< 40%	CC(C)[C@@H](C(=O)NCCc1ccsc1)n1cc(COc2ccc3nc(S(N)(=O)=O)sc3c2)nn1 [DHK139]	–
–	< 40%	NS(=O)(=O)c1ccc(-c2cn(CC(=O)NC(Cc3cnc[nH]3)C(=O)O)nn2)cc1 (centres unmarked) [DHK106]	–
–	< 40%	CC1CCCN(C(=O)C(C(C)C)n2cc(COc3ccc4nc(S(N)(=O)=O)sc4c3)nn2)C1 (centres unmarked) [DHK119]	–
–	< 40%	Cc1ccnc(NC(=O)[C@H](Cc2ccccc2)n2cc(CNC(=O)c3ccc(S(N)(=O)=O)cc3)nn2)c1 [DHK36]	–
–	< 40%	CC(C)C(C(=O)NCCCN1CCOCC1)n1cc(CNC(=O)c2ccc(S(N)(=O)=O)cc2)nn1 (centres unmarked) [DHK58]	–
< 40%	–	CC(C)[C@@H](C(=O)NCC1CC1)n1cc(-c2ccc(S(N)(=O)=O)cc2)nn1 [DHK180]	–
–	< 40%	NS(=O)(=O)c1nc2ccc(OCc3cn(CCCCCCO)nn3)cc2s1 [DHK137]	–
–	< 40%	NS(=O)(=O)c1ccc(-c2cn(C3C(O)C(O)OC3C(O)CO)nn2)cc1 (centres unmarked) [DHK111]	–
–	< 40%	NS(=O)(=O)c1ccc(C(=O)NCc2cn(CC(=O)N3CCN(c4cc(Cl)cc(Cl)c4)CC3)nn2)cc1 [DHK94]	–
–	< 40%	CCCCCC[C@H](O)[C@@H](O)c1ccc(Cn2cc(CNC(=O)c3ccc(S(N)(=O)=O)cc3)nn2)cc1 [DHK85]	–
–	< 40%	CCCOC(=O)c1ccc(NC(=O)Cn2cc(-c3ccc(S(N)(=O)=O)cc3)nn2)cc1 [DHK3]	–
–	< 40%	CC(CN(C)C)Cn1cc(CNC(=O)c2ccc(S(N)(=O)=O)cc2)nn1 (centres unmarked) [DHK43]	–
–	< 40%	CC(C)[C@@H](C(=O)NCc1cc(F)ccc1F)n1cc(-c2ccc(S(N)(=O)=O)cc2)nn1 [DHK11]	–
–	< 40%	COC(=O)C(Cc1ccc(C(=O)O)cc1)n1cc(CNC(=O)c2ccc(S(N)(=O)=O)cc2)nn1 (centres unmarked) [DHK56]	–
–	< 40%	CC(C)C(C(=O)NCCc1ccsc1)n1cc(-c2ccc(S(N)(=O)=O)cc2)nn1 (centres unmarked) [DHK76]	–
–	< 40%	NS(=O)(=O)c1ccc(-c2cn(CCN3CCOCC3)nn2)cc1 [DHK5]	–

The remaining lines, values behind:

SMILES	inhibition at 1 µM [1]	inhibition at 1 µM [2]	also measured
NS(=O)(=O)c1ccc(-c2cn([C@@H](Cc3ccccc3)C(=O)N3CCC(N4CCCC4)CC3)nn2)cc1 [DHK-2-21]	< 40%	–	–
CCOC(=O)C(Cc1ccccc1)NC(=O)[C@H](Cc1ccccc1)n1cc(COc2ccc3nc(S(N)(=O)=O)sc3c2)nn1 (some centres unmarked) [DHK-2-59]	< 40%	–	–
NS(=O)(=O)c1nc2ccc(OCc3cn([C@@H](Cc4ccccc4)C(=O)NCC4COc5ccccc5O4)nn3)cc2s1 (some centres unmarked) [DHK-2-71]	–	–	In Vitro Binding Assay (Library Screening) (Table 2, Libraries 4-7): √
CC(C)[C@@H](C(=O)N1CCC(N2CCCC2)CC1)n1cc(COc2ccc3nc(S(N)(=O)=O)sc3c2)nn1 [DHK-2-45]	< 40%	–	–
CC(C)[C@@H](C(=O)NCC1CC1)n1cc(COc2ccc3nc(S(N)(=O)=O)sc3c2)nn1 [DHK-2-37]	< 40%	–	–
NS(=O)(=O)c1nc2ccc(OCc3cn([C@@H](Cc4ccccc4)C(=O)NCc4ccc(F)cc4)nn3)cc2s1 [DHK-2-52]	< 40%	–	–
CC(C)[C@@H](C(=O)NCCN1CCN(Cc2ccccc2)CC1)n1cc(COc2ccc3nc(S(N)(=O)=O)sc3c2)nn1 [DHK-2-47]	< 40%	–	–
CCOC(=O)CCN(Cc1ccco1)C(=O)[C@H](Cc1ccccc1)n1cc(-c2ccc(S(N)(=O)=O)cc2)nn1 [DHK-2-16]	< 40%	–	–
CC(C)[C@@H](C(=O)NCc1ccccn1)n1cc(COc2ccc3nc(S(N)(=O)=O)sc3c2)nn1 [DHK-2-35]	< 40%	–	–
CC(C)[C@@H](C(=O)NC1CCCCC1)n1cc(COc2ccc3nc(S(N)(=O)=O)sc3c2)nn1 [DHK-2-36]	< 40%	–	–
CC(C)[C@@H](C(=O)NCc1ccc(F)cc1)n1cc(COc2ccc3nc(S(N)(=O)=O)sc3c2)nn1 [DHK-2-25]	< 40%	–	–
NS(=O)(=O)c1ccc(-c2cn([C@@H](Cc3ccccc3)C(=O)N3CCN(c4ncccn4)CC3)nn2)cc1 [DHK-2-4]	< 40%	–	–
NS(=O)(=O)c1nc2ccc(OCc3cn([C@@H](Cc4ccccc4)C(=O)NCc4ccccn4)nn3)cc2s1 [DHK-2-62]	< 40%	–	–
CN(C)Cc1ccc(CSCCNC(=O)[C@H](Cc2ccccc2)n2cc(-c3ccc(S(N)(=O)=O)cc3)nn2)o1 [DHK-2-3]	< 40%	–	–
NS(=O)(=O)c1nc2ccc(OCc3cn([C@@H](Cc4ccccc4)C(=O)NCc4ccc(-c5ccccn5)s4)nn3)cc2s1 [DHK-2-56]	< 40%	–	–
NS(=O)(=O)c1nc2ccc(OCc3cn([C@@H](Cc4ccccc4)C(=O)NCCCO)nn3)cc2s1 [DHK-2-65]	< 40%	–	–
CC(C)[C@@H](C(=O)N1CCC[C@@H]1CO)n1cc(COc2ccc3nc(S(N)(=O)=O)sc3c2)nn1 [DHK-2-30]	< 40%	–	–
NS(=O)(=O)c1ccc(-c2cn([C@@H](Cc3ccccc3)C(=O)NCc3ccc(-c4ccccn4)s3)nn2)cc1 [DHK-2-5]	< 40%	–	–
NS(=O)(=O)c1nc2ccc(OCc3cn([C@@H](Cc4ccccc4)C(=O)N4CCN(c5ncccn5)CC4)nn3)cc2s1 [DHK-2-55]	< 40%	–	–
NS(=O)(=O)c1ccc(-c2cn([C@@H](Cc3ccccc3)C(=O)NCCN3CCN(Cc4ccccc4)CC3)nn2)cc1 [DHK-2-23]	< 40%	–	–
C=CC1C[N@@]2CCC1CC2[C@@H](c1ccnc2ccc(OC)cc12)n1cc(-c2ccc(S(N)(=O)=O)cc2)nn1 (some centres unmarked) [DHK72]	–	< 40%	–
